Experimental data: US12503452B2 (Curza Global, LLC, priority 2019, dated 2025)

Experiments:
[1] = test system: E. coli S30 extract (bacterial protein synthesis); test: E. coli S30 extract coupled transcription-translation luciferase assay (inhibition of bacterial protein synthesis); type: biochemical; conditions: class by IC50 or % inhibition @ 1 μM, read-out: S30 IC50 (μM/% inhib.)
Outline: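 Luminescent read-out of luciferase made from pBESTluc DNA by E. coli S30 extract after 1 h at 37 °C with compound in an 8-point 2-fold series. Background came from no-DNA reactions. Percent inhibition was calculated against water-only controls.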

[2] = target: Rabbit Reticulocyte Lysate (eukaryotic protein synthesis); test: Rabbit reticulocyte lysate luciferase assay (inhibition of eukaryotic protein synthesis); type: biochemical; conditions: class by IC50 or % inhibition @ 1 μM, read-out: Rabbit reticulocyte IC50 (μM/% inhib.)
Outline: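 Compounds were tested in 8-point 2-fold dilution series for blocking luciferase synthesis in nuclease-treated rabbit reticulocyte lysate (30° C., 90 minutes). Luminescence read-out, corrected by no-RNA background, was expressed as % inhibition against water-only reactions.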

A. baumannii (Ab) = test: Broth microdilution minimum inhibitory concentration (MIC); type: cell-based; conditions: Acinetobacter baumannii; A. baumannii; growth medium supplemented with sodium bicarbonate; read-out: Ab + bicarb MIC
Outline: (§1)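 MICs were run in triplicate per CLSI microdilution (modified, 8 dilution steps), inoculating 5×10^4 CFU/well prepared from colonies grown at 35±2° C to 0.5 McFarland. Media: CAMHB alone, with 6.25 or 25 mM final sodium bicarbonate, or with 0–50% heat-inactivated human serum.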

E. coli (Ec) = test: as above; type: cell-based; conditions: Escherichia coli, E. coli; growth medium supplemented with sodium bicarbonate; read-out: E. coli + bicarb MIC
Outline: as §1

E. faecalis (Ef) = test: as above; type: cell-based; conditions: Enterococcus faecalis, E. faecalis; growth medium supplemented with sodium bicarbonate; read-out: Ef + bicarb MIC
Outline: as §1

P. aeruginosa (Pa) = test: as above; type: cell-based; conditions: Pseudomonas aeruginosa, P. aeruginosa; growth medium supplemented with sodium bicarbonate; read-out: Pa MIC + bicarb
Outline: as §1

S. aureus (Sa) = test: as above; type: cell-based; conditions: Staphylococcus aureus, S. aureus; growth medium supplemented with sodium bicarbonate; read-out: Sa + bicarb MIC
Outline: as §1

| Structure (SMILES) | IC50 [1] [µM] | IC50 [2] [µM] | MIC (A. baumannii (Ab)) [µg/mL] | MIC (E. coli (Ec)) [µg/mL] | MIC (E. faecalis (Ef)) [µg/mL] | MIC (P. aeruginosa (Pa)) [µg/mL] | MIC (S. aureus (Sa)) [µg/mL] |
| --- | --- | --- | --- | --- | --- | --- | --- |
| CC(C)(N)C(=O)N1CCN(C(=O)Nc2ccn(-c3ccc(CN[C@H]4CC[C@H](N)C4)cc3)c(=O)n2)CC1 [Compound 123] | < 0.5 | > 1 | > 32 | < 8 | > 32 | > 32 | < 8 |
| CN(Cc1ccc(-n2ccc(NC(=O)N3CCN(C(=O)C(C)(C)N)CC3)nc2=O)cc1)[C@H]1CC[C@H](N)C1 [Compound 124] | < 0.5 | > 1 | > 32 | < 8 | < 8 | > 32 | < 8 |
| CCN(Cc1ccc(-n2ccc(NC(=O)N3CCN(C(=O)C(C)(C)N)CC3)nc2=O)cc1)[C@H]1CC[C@H](N)C1 [Compound 125] | < 0.5 | > 1 | > 32 | < 8 | < 8 | > 32 | < 8 |
| CC(C)(N)C(=O)N1CCN(C(=O)Nc2ccn(-c3ccc(CNCC4CC(N)C4)cc3)c(=O)n2)CC1 (stereo not drawn) [Compound 126] | < 0.5 | > 1 | > 32 | < 8 | > 32 | > 32 | 8 to 32 |
| CN(Cc1ccc(-n2ccc(NC(=O)N3CCN(C(=O)C(C)(C)N)CC3)nc2=O)cc1)CC1CC(N)C1 (stereo not drawn) [Compound 127] | < 0.5 | > 1 | > 32 | < 8 | < 8 | > 32 | < 8 |
| CCN(Cc1ccc(-n2ccc(NC(=O)N3CCN(C(=O)C(C)(C)N)CC3)nc2=O)cc1)CC1CC(N)C1 (stereo not drawn) [Compound 128] | < 0.5 | > 1 | > 32 | < 8 | < 8 | 8 to 32 | < 8 |
| CC(C)CN(Cc1ccc(-n2ccc(NC(=O)N3CCN(C(=O)C(C)(C)N)CC3)nc2=O)cc1)[C@H]1CC[C@H](N)CC1 [Compound 129] | < 0.5 | > 1 | < 8 | < 8 | < 8 | 8 to 32 | < 8 |
| CC(C)(N)C(=O)N1CCN(C(=O)Nc2ccn(-c3ccc(CN(CC4CC4)[C@H]4CC[C@H](N)CC4)cc3)c(=O)n2)CC1 [Compound 130] | < 0.5 | > 1 | 8 to 32 | < 8 | < 8 | 8 to 32 | < 8 |
| CCCN(Cc1ccc(-n2ccc(NC(=O)N3CCN(C(=O)C(C)(C)N)CC3)nc2=O)cc1)[C@H]1CC[C@H](N)CC1 [Compound 131] | < 0.5 | > 1 | < 8 | < 8 | < 8 | 8 to 32 | < 8 |
| CC(C)(N)C(=O)N1CCN(C(=O)Nc2ccn(-c3ccc(CN(CCO)[C@H]4CC[C@H](N)CC4)cc3)c(=O)n2)CC1 [Compound 132] | < 0.5 | > 1 | > 32 | < 8 | > 32 | > 32 | < 8 |
| C[C@](N)(CO)C(=O)N1CCN(C(=O)Nc2ccn(-c3ccc(CN4CC(CCN)C4)cc3)c(=O)n2)CC1 [Compound 136] | < 0.5 | > 1 | > 32 | 8 to 32 | 8 to 32 | > 32 | 8 to 32 |
| CC(C)(N)C(=O)N1CCN(C(=O)Nc2ccn(-c3ccc(CN4CC(O)(CN)C4)cc3)c(=O)n2)CC1 [Compound 137] | < 0.5 | > 1 | > 32 | < 8 | > 32 | > 32 | 8 to 32 |
| CC(C)(N)C(=O)N1CCN(C(=O)Nc2ccn(-c3ccc(CN(CCF)[C@H]4CC[C@H](N)CC4)cc3)c(=O)n2)CC1 [Compound 138] | 0.5 to 1 | > 1 | > 32 | < 8 | > 32 | > 32 | < 8 |
| Cc1cc(-n2ccc(NC(=O)N3CCN(C(=O)[C@@](C)(N)CO)CC3)nc2=O)ccc1CCN1CCCC(N)CC1 (stereo partly drawn) [Compound 139] | < 0.5 | > 1 | > 32 | < 8 | < 8 | 8 to 32 | < 8 |
| Cc1cc(-n2ccc(NC(=O)N3CCN(C(=O)C(C)(C)N)CC3)nc2=O)ccc1CCN1CCCC(N)CC1 (stereo not drawn) [Compound 140] | < 0.5 | > 1 | 8 to 32 | < 8 | < 8 | 8 to 32 | < 8 |
